Tests used:
HeLa cells = assay: Cytotoxicity of released Dox, MTT assay; type: cell-based; conditions: HeLa cells treated 24 h with Dox-released incubation solutions of pH 5.0, 6.4, 7.4
Method: Cell adhesion efficiencies were evaluated by incubating GelRed-labeled pDNets in cell media containing 2.5×10^5 Hela or NIH/3T3 cells for an hour. After the incubation, Calcein AM was used to stain the attached cells and the pDNets were washed three times with PBS. After staining, CLSM was used to visualize the respective fluorescence to determine the number of cells attached to each pDNet/mm^2. Evaluation of intracellular delivery of released Dox from pDNets was performed by loading pDNets with 20 nmol Dox. Dox-loaded pDNets were incubated in a pH 5.0, 6.4, and […] PBS solution for 32 h, which were then diluted 1, 2, and 4-fold with Dulbecco's modified Eagle's medium and used to treat 1×10^5 HeLa cells for 2 h. As a positive control, 20 nmol free Dox diluted similarly was used for treatment at final concentrations of 2, 4, and 8 μM to represent complete release of Dox. After the incubation, cell nuclei were stained with Hoechst and the intracellular delivery of Dox was compared using CLSM. […] After 24 h of treatment, cell viability was quantified using the MTT assay (Roche Diagnostics, Mannheim, Germany) following the manufacturer's protocol. […] The resulting formazan salts were dissolved by adding dimethyl sulfoxide, and the absorbance was measured at 570 nm using a multi-label microplate reader (Victor X5; Perkin Elmer).

[1] = test system: HeLa cell-implanted BALB/c nude mice xenografts; assay: Localized anticancer therapy, intratumoral injection; type: in vivo; conditions: single intratumoral injection, 2.5 mg/kg Dox, day 8
Method: All animal experiments were performed in compliance with the relevant laws and institutional guidelines of the Korea Institute of Science and Technology (KIST; KIST-2020-108). To evaluate the anticancer effects of pDNets, tumor-bearing BALB/c nude mice were prepared by injecting a suspension of 5×10^6 cells per mouse. The mice were divided into five groups (n=5): (1) PBS, (2) free DOX, (3) pDNet-H, (4) pDNet-M, and (5) pDNet-L. Each mouse was injected intratumorally with 2.5 mg/kg Dox when the size of the tumors was approximately 100-150 mm ^3. The tumor volumes and body weights of each mouse were observed every 2 days for 8 days. The length (L) and width (W) of the tumors were measured, and tumor volumes (V) were calculated using the following formula: V=L×W^2×0.52. To assess the biocompatibility of the pDNets, mice in each group were sacrificed after 8 days and the major organs were excised. To assess the biosafety of pDNets, the excised organs were paraffin-embedded and cut into 5 μm sections. Hematoxylin and eosin (H&E) staining was performed to observe the histopathological changes.

In the case of COc1cccc2c1C(=O)c1c(O)c3c(c(O)c1C2=O)C[C@@](O)(C(=O)CO)C[C@@H]3O[C@H]1C[C@H](N)[C@H](O)[C@H](C)O1 [free Dox, doxorubicin], the “in vitro therapeutic effect (cell viability, MTT)” value (HeLa cells) is reported as “most effective in vitro”, the “tumor volume reduction relative to the control group” value [1] is reported as ~35% and the “tumor weight reduction relative to the control group” value [1] is reported as ~35%.

From patent publication US20230381322A1, “METHOD FOR PREPARING A DNA NETWORK WITH CONTROLLED CRYSTAL STRUCTURE AND A METHOD FOR INJECTING DRUGS USING THE DNA NETWORK” (UIF (University Industry Foundation), Yonsei University, priority 2022, published 2023)
